Series [1] relates to Plasmodium falciparum. Kind of series: Antimalarial activity against Plasmodium falciparum 3D7 infected in ARh+ human erythrocytes at 0.1 uM after 42 to 48 hrs by Picogreen staining-based 96 well microplate assay. The class given is functional. The conditions noted are these: read-out: GI.
For series [2], the system named is Plasmodium falciparum. Nature of the series: Antimalarial activity against Plasmodium falciparum 3D7 infected in ARh+ human erythrocytes after 42 to 48 hrs by Picogreen staining-based 96 well microplate assay. The format is functional, organism-based.
The subject of series [3] is Plasmodium falciparum. Kind of series: Antimalarial activity against Plasmodium falciparum 3D7 infected in ARh+ human erythrocytes at 0.01 uM after 42 to 48 hrs by Picogreen staining-based 96 well microplate assay. The class given is functional. The conditions noted are these: read-out: GI.
The subject of series [4] is Plasmodium falciparum. Nature of the series: Antimalarial activity against Plasmodium falciparum 3D7 infected in ARh+ human erythrocytes at 10 uM after 42 to 48 hrs by Picogreen staining-based 96 well microplate assay. The conditions noted are these: read-out: GI. The class given is functional.
Series [5] concerns Plasmodium falciparum. Kind of series: Antimalarial activity against Plasmodium falciparum 3D7 infected in ARh+ human erythrocytes at 1 uM after 42 to 48 hrs by Picogreen staining-based 96 well microplate assay. The conditions noted are these: read-out: GI. The format is functional.
A further series relates to hERG (KCNH2). Kind of series: Selectivity index, ratio of IC50 for inhibition of human ERG expressed in Xenopus laevis oocytes to IC50 for Plasmodium falciparum 3D7. The format is toxicity, cell-based. The conditions noted are these: read-out: Ratio IC50.
In series [6] the target is Voltage-gated inwardly rectifying potassium channel KCNH2 (Homo sapiens, UniProt Q12809). Nature of the series: Inhibition of human ERG expressed in Xenopus laevis oocytes by two-electrode voltage clamp assay. The format is cell-based. A general note: Two-electrode voltage clamp holds a large cell at a set potential and records current.
Chain of Voltage-gated inwardly rectifying potassium channel KCNH2 (Q12809 whole entry): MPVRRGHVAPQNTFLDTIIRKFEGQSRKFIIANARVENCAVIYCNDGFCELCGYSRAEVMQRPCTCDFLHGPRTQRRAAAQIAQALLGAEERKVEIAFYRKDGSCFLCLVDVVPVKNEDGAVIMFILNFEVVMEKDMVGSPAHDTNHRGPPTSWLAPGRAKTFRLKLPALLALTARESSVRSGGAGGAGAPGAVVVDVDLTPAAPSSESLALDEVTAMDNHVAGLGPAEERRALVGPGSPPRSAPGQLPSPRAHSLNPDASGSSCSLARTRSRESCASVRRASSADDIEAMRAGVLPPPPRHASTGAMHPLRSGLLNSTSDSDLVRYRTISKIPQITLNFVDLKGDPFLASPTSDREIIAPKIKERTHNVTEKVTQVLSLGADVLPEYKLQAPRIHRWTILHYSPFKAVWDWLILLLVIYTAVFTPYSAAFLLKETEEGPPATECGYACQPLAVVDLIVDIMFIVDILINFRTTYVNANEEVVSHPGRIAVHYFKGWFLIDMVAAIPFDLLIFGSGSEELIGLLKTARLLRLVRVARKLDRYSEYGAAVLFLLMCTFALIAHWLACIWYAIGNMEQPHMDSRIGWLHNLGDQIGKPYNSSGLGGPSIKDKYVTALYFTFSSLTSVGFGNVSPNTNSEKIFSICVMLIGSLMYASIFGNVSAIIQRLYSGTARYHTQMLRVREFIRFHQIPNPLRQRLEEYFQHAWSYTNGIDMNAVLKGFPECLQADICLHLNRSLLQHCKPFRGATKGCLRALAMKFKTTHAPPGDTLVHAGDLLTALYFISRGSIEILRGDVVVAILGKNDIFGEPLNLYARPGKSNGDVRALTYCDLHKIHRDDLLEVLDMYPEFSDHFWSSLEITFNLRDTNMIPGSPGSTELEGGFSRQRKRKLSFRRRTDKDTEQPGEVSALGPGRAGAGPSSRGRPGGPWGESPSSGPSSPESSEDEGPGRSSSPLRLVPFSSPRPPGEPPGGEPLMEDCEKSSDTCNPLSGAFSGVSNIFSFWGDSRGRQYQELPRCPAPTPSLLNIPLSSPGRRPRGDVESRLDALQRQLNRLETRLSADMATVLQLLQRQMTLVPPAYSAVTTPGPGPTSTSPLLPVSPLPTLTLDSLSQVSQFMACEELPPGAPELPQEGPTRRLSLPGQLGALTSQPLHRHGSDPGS
Series [7] relates to Plasmodium falciparum. Kind of series: Antiplasmodial activity against Plasmodium falciparum K1 at 0.002 to 100 ug/ml by serial drug dilution assay. The format is functional, organism-based.

For orientation: IC50 means the concentration that inhibits the measured activity by half. A higher IC50 goes with weaker potency in that assay. Regarding `COc1ccc(CCN2CCN(c3nc4ccccc4n3Cc3ccc(F)cc3)CC2)cc1`, the inhibition of growth at 0.1 µM in the series on Plasmodium falciparum [1] was 0%. In the series with Plasmodium falciparum [2], this compound yielded an IC50 of 6530 nM. In addition, the inhibition of growth at 0.01 µM with Plasmodium falciparum [3] is 0%. For the same compound, in the series on Plasmodium falciparum [4], the inhibition of growth at 10 µM came out at 57%. Besides, in the series on Plasmodium falciparum [5], the inhibition of growth at 1 µM was determined as 21%.

As for `CCCCCCCCCCn1c(NC2CCN(CCc3ccc(OC)cc3)CC2)nc2ccccc21`, the inhibition of growth at 0.1 µM in the series with Plasmodium falciparum [1] worked out at 77%. Moreover, the 50% inhibitory concentration (IC50) with Plasmodium falciparum [2] is 50 to 113 nM; in series [6] it was 2070 nM. Further, the inhibition of growth at 0.01 µM in the series on Plasmodium falciparum [3] stood at 0%. The inhibition of growth at 10 µM with Plasmodium falciparum [4] is 100%. Besides, the selectivity ratio in the series with hERG (KCNH2) came to 18.4. The inhibition of growth at 1 µM in the series on Plasmodium falciparum [5] was 100%.

As to `CCCCCCCCn1c(NC2CCN(CCc3ccc(OC)cc3)CC2)nc2ccccc21`, in the series with Plasmodium falciparum [1], the inhibition of growth at 0.1 µM amounted to 93%. The IC50 in the series on Plasmodium falciparum [2] was 29 to 29.6 nM; in series [6] it was 3270 nM. Further, the inhibition of growth at 0.01 µM with Plasmodium falciparum [3] amounted to 4%. For the same compound, the inhibition of growth at 10 µM in the series on Plasmodium falciparum [4] was 100%. In the series on hERG (KCNH2), the selectivity ratio turned out to be 110. In the series with Plasmodium falciparum [5], the inhibition of growth at 1 µM was determined as 96%.

Take `COc1ccc(CCN2CCC(Nc3nc4ccccc4n3CC3CCCCC3)CC2)cc1`: the inhibition of growth at 0.1 µM in the series with Plasmodium falciparum [1] was found to be 80%. For the same compound, the IC50 with Plasmodium falciparum [2] is 39.4 to 44 nM; in series [6], 3.27 nM. The inhibition of growth at 0.01 µM in the series with Plasmodium falciparum [3] worked out at 1%. Also, in the series with Plasmodium falciparum [4], the inhibition of growth at 10 µM turned out to be 100%. The selectivity ratio in the series with hERG (KCNH2) stood at 0.1. Also, the inhibition of growth at 1 µM in the series on Plasmodium falciparum [5] is 100%.

Take `COc1ccc(CCN2CCC(Nc3nc4ccccc4n3Cc3ccc(F)cc3F)CC2)cc1`: the inhibition of growth at 0.1 µM in the series with Plasmodium falciparum [1] is 55%. Besides, the concentration for half-maximal inhibition (IC50) was 85 to 102 nM in the series on Plasmodium falciparum [2] and 178 nM in series [6]. The inhibition of growth at 0.01 µM with Plasmodium falciparum [3] was 0%. Also, the inhibition of growth at 10 µM with Plasmodium falciparum [4] stood at 80%. In addition, the selectivity ratio in the series on hERG (KCNH2) was 1.7. In addition, in the series on Plasmodium falciparum [5], the inhibition of growth at 1 µM was found to be 100%.

`COc1ccc(CCN2CCC(Nc3nc4ccccc4[nH]3)CC2)cc1`: the inhibition of growth at 0.1 µM in the series with Plasmodium falciparum [1] was determined as 52%. Further, the IC50 in the series on Plasmodium falciparum [2] was 78 to 79.7 nM; in series [6], 164 nM. Moreover, the inhibition of growth at 0.01 µM in the series with Plasmodium falciparum [3] was 6%. In addition, in the series on Plasmodium falciparum [4], the inhibition of growth at 10 µM came to 100%. In addition, the selectivity ratio with hERG (KCNH2) was found to be 2.1. Besides, the inhibition of growth at 1 µM with Plasmodium falciparum [5] stood at 100%.

For the compound `COc1ccc(CCN2CCC(Nc3nc4ccccc4n3CCC(C)C)CC2)cc1`, the inhibition of growth at 0.1 µM in the series on Plasmodium falciparum [1] was 54%. Moreover, the IC50 in the series with Plasmodium falciparum [2] is 28 to 92 nM; in series [6], 212 nM. In addition, the inhibition of growth at 0.01 µM in the series with Plasmodium falciparum [3] stood at 0%. Further, the inhibition of growth at 10 µM with Plasmodium falciparum [4] is 97%. Also, the selectivity ratio in the series on hERG (KCNH2) worked out at 7.6. The inhibition of growth at 1 µM in the series with Plasmodium falciparum [5] is 100%.

For `CN(C)CCC=C1c2ccccc2CCc2ccccc21` [AMITRIPTYLINE], half-maximal inhibition in the series with Plasmodium falciparum [7] (IC50) required 500 nM.

Turning to `COc1ccc(CCN2CCC(Nc3nc4ccccc4n3Cc3ccc(F)cc3)CC2)cc1` [ASTEMIZOLE], in the series with Plasmodium falciparum [1], the inhibition of growth at 0.1 µM was 37%. The concentration for half-maximal inhibition (IC50) in the series on Plasmodium falciparum [2] was in the range of 162 to 171 nM. Moreover, the inhibition of growth at 0.01 µM with Plasmodium falciparum [3] worked out at 0%. Moreover, the inhibition of growth at 10 µM with Plasmodium falciparum [4] is 99%. For the same compound, the inhibition of growth at 1 µM with Plasmodium falciparum [5] was found to be 91%.

`OCCN1CCN(CCCN2c3ccccc3Sc3ccc(C(F)(F)F)cc32)CC1` [FLUPHENAZINE] came in with a half-inhibitory concentration (IC50) in the series with Plasmodium falciparum [7] of 500 nM.

In the series with Plasmodium falciparum [7], `CNCCC=C1c2ccccc2CCc2ccccc21` [NORTRIPTYLINE] showed a half-inhibitory concentration (IC50) of 500 nM.

`CN(C)CCCN1c2ccccc2Sc2ccccc21` [PROMAZINE] showed an IC50 with Plasmodium falciparum [7] of 500 nM.

`Fc1ccc(Cn2c(NC3CCNCC3)nc3ccccc32)cc1` [TECASTEMIZOLE]: in the series on Plasmodium falciparum [1], the inhibition of growth at 0.1 µM is 0%. In the series on Plasmodium falciparum [2], this compound yielded an IC50 of 2300 nM. For the same compound, the inhibition of growth at 0.01 µM in the series with Plasmodium falciparum [3] worked out at 5%. Also, the inhibition of growth at 10 µM with Plasmodium falciparum [4] turned out to be 100%. The inhibition of growth at 1 µM with Plasmodium falciparum [5] turned out to be 17%.

The record behind these values is ChEMBL document CHEMBL4177615 (Bioorg Med Chem, 2017).
